Test results: US10167262B2, “Herbicidal substituted 3-arylpyrazoles” (FMC CORPORATION, priority 2014, dated 2019)

Columns and labels:
Assay in all cases: Test C postemergence greenhouse test, plant response rating 0-100
Type in all cases: in vivo
[1] = test system: goosegrass (Eleusine indica); conditions: for Plant response rating, Goosegrass: scale 0 to 100
In short: (§1)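 Scores run from 0, meaning no effect, to 100, meaning complete control, and come from visual comparison with untreated controls. Treatment was a postemergence application to plants 2–18 cm tall. Assessment followed 13 to 15 days of greenhouse growth.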

[2] = test system: cocklebur (common cocklebur, Xanthium strumarium); conditions: for Plant response rating, Cocklebur: scale 0 to 100
In short: as §1

[3] = test system: winter barley (Hordeum vulgare); conditions: for Plant response rating, Barley: scale 0 to 100
In short: as §1

[4] = test system: windgrass (Apera spica-venti); conditions: for Plant response rating, Windgrass: scale 0 to 100
In short: as §1

[5] = test system: deadnettle (henbit deadnettle, Lamium amplexicaule); conditions: for Plant response rating, Deadnettle: scale 0 to 100
In short: as §1

[6] = test system: surinam grass (Brachiaria decumbens); conditions: for Plant response rating, Surinam Grass: scale 0 to 100
In short: as §1

[7] = test system: canarygrass (Phalaris minor); conditions: for Plant response rating, Canarygrass: scale 0 to 100
In short: as §1

[8] = test system: woolly cupgrass (Eriochloa villosa); conditions: for Plant response rating, Cupgrass, Woolly: scale 0 to 100
In short: as §1

[9] = test system: downy bromegrass (Bromus tectorum); conditions: for Plant response rating, Bromegrass, Downy: scale 0 to 100
In short: as §1

[10] = test system: bermudagrass (Cynodon dactylon); conditions: for Plant response rating, Bermudagrass: scale 0 to 100
In short: as §1

[11] = test system: green foxtail (Setaria viridis); conditions: for Plant response rating, Foxtail, Green: scale 0 to 100
In short: as §1

With `Clc1cc(Cl)cc(-c2n[nH]cc2C(=NN2CCCC2)c2ccccc2)c1` [Compound 30, N-[[3-(3,5-dichlorophenyl)-1H-pyrazol-4-yl]phenylmethylene]-1-pyrrolidinamine] the “Plant response rating (0 to 100), Goosegrass” value ([1]; 31 g ai/ha) was 0, the “Plant response rating (0 to 100), Goosegrass” value ([1]; 62 g ai/ha) was 0 and the “Plant response rating (0 to 100), Goosegrass” value ([1]; 125 g ai/ha) was 0. For the same compound, the “Plant response rating, Goosegrass” value ([1]; 250 g ai/ha) was 0, the “Plant response rating (0 to 100), Cocklebur” value ([2]; 31 g ai/ha) was 10 and the “Plant response rating (0 to 100), Barley” value ([3]; 31 g ai/ha) was 0. The “Plant response rating (0 to 100), Barley” value ([3]; 62 g ai/ha) was 0, the “Plant response rating, Barley” value ([3]; 125 g ai/ha) was 0 and the “Plant response rating, Barley” value ([3]; 250 g ai/ha) was 0. For the same compound, the “Plant response rating (0 to 100), Windgrass” value ([4]; 62 g ai/ha) was 0, the “Plant response rating (0 to 100), Windgrass” value ([4]; 125 g ai/ha) was 0 and the “Plant response rating, Windgrass” value ([4]; 250 g ai/ha) was 0. For the same compound, the “Plant response rating (0 to 100), Deadnettle” value ([5]; 31 g ai/ha) was 0, the “Plant response rating (0 to 100), Deadnettle” value ([5]; 62 g ai/ha) was 0 and the “Plant response rating (0 to 100), Deadnettle” value ([5]; 125 g ai/ha) was 0. For the same compound, the “Plant response rating, Deadnettle” value ([5]; 250 g ai/ha) was 0, the “Plant response rating (0 to 100), Surinam Grass” value ([6]; 62 g ai/ha) was 0 and the “Plant response rating (0 to 100), Surinam Grass” value ([6]; 125 g ai/ha) was 0. The “Plant response rating, Surinam Grass” value ([6]; 250 g ai/ha) was 0, the “Plant response rating (0 to 100), Canarygrass” value ([7]; 31 g ai/ha) was 0 and the “Plant response rating (0 to 100), Canarygrass” value ([7]; 62 g ai/ha) was 0. The “Plant response rating (0 to 100), Canarygrass” value ([7]; 125 g ai/ha) was 0, the “Plant response rating, Canarygrass” value ([7]; 250 g ai/ha) was 0 and the “Plant response rating (0 to 100), Cupgrass, Woolly” value ([8]; 31 g ai/ha) was 0. For the same compound, the “Plant response rating (0 to 100), Cupgrass, Woolly” value ([8]; 62 g ai/ha) was 0, the “Plant response rating (0 to 100), Cupgrass, Woolly” value ([8]; 125 g ai/ha) was 0 and the “Plant response rating, Cupgrass, Woolly” value ([8]; 250 g ai/ha) was 0. For the same compound, the “Plant response rating (0 to 100), Bromegrass, Downy” value ([9]; 31 g ai/ha) was 0, the “Plant response rating (0 to 100), Bromegrass, Downy” value ([9]; 62 g ai/ha) was 0 and the “Plant response rating, Bromegrass, Downy” value ([9]; 125 g ai/ha) was 0. The “Plant response rating, Bromegrass, Downy” value ([9]; 250 g ai/ha) was 0, the “Plant response rating (0 to 100), Bermudagrass” value ([10]; 31 g ai/ha) was 0 and the “Plant response rating (0 to 100), Bermudagrass” value ([10]; 62 g ai/ha) was 0. For the same compound, the “Plant response rating, Bermudagrass” value ([10]; 125 g ai/ha) was 0, the “Plant response rating, Bermudagrass” value ([10]; 250 g ai/ha) was 0 and the “Plant response rating (0 to 100), Foxtail, Green” value ([11]; 31 g ai/ha) was 0. The “Plant response rating (0 to 100), Foxtail, Green” value ([11]; 62 g ai/ha) was 0, the “Plant response rating (0 to 100), Foxtail, Green” value ([11]; 125 g ai/ha) was 0 and the “Plant response rating, Foxtail, Green” value ([11]; 250 g ai/ha) was 0.

For `Fc1ccc(NN=C(c2ccccc2)c2c[nH]nc2-c2cc(Cl)cc(Cl)c2)cc1` [Compound 35], the “Plant response rating (0 to 100), Goosegrass” value ([1]; 62 g ai/ha) was 0, the “Plant response rating (0 to 100), Goosegrass” value ([1]; 125 g ai/ha) was 0 and the “Plant response rating, Goosegrass” value ([1]; 250 g ai/ha) was 0. For the same compound, the “Plant response rating, Goosegrass” value ([1]; 500 g ai/ha) was 0, the “Plant response rating (0 to 100), Cocklebur” value ([2]; 62 g ai/ha) was 60 and the “Plant response rating (0 to 100), Cocklebur” value ([2]; 125 g ai/ha) was 60. For the same compound, the “Plant response rating, Cocklebur” value ([2]; 250 g ai/ha) was 75, the “Plant response rating, Cocklebur” value ([2]; 500 g ai/ha) was 75 and the “Plant response rating (0 to 100), Barley” value ([3]; 62 g ai/ha) was 0. For the same compound, the “Plant response rating (0 to 100), Barley” value ([3]; 125 g ai/ha) was 0, the “Plant response rating, Barley” value ([3]; 250 g ai/ha) was 0 and the “Plant response rating, Barley” value ([3]; 500 g ai/ha) was 0. The “Plant response rating (0 to 100), Windgrass” value ([4]; 62 g ai/ha) was 0, the “Plant response rating (0 to 100), Windgrass” value ([4]; 125 g ai/ha) was 0 and the “Plant response rating, Windgrass” value ([4]; 250 g ai/ha) was 0. For the same compound, the “Plant response rating, Windgrass” value ([4]; 500 g ai/ha) was 0, the “Plant response rating (0 to 100), Deadnettle” value ([5]; 62 g ai/ha) was 0 and the “Plant response rating (0 to 100), Deadnettle” value ([5]; 125 g ai/ha) was 0. The “Plant response rating, Deadnettle” value ([5]; 250 g ai/ha) was 0, the “Plant response rating, Deadnettle” value ([5]; 500 g ai/ha) was 0 and the “Plant response rating (0 to 100), Surinam Grass” value ([6]; 62 g ai/ha) was 0. The “Plant response rating (0 to 100), Surinam Grass” value ([6]; 125 g ai/ha) was 0, the “Plant response rating, Surinam Grass” value ([6]; 250 g ai/ha) was 0 and the “Plant response rating, Surinam Grass” value ([6]; 500 g ai/ha) was 0. For the same compound, the “Plant response rating (0 to 100), Canarygrass” value ([7]; 62 g ai/ha) was 0, the “Plant response rating (0 to 100), Canarygrass” value ([7]; 125 g ai/ha) was 0 and the “Plant response rating, Canarygrass” value ([7]; 250 g ai/ha) was 0. For the same compound, the “Plant response rating, Canarygrass” value ([7]; 500 g ai/ha) was 0, the “Plant response rating (0 to 100), Cupgrass, Woolly” value ([8]; 62 g ai/ha) was 5 and the “Plant response rating (0 to 100), Cupgrass, Woolly” value ([8]; 125 g ai/ha) was 5. The “Plant response rating, Cupgrass, Woolly” value ([8]; 250 g ai/ha) was 5, the “Plant response rating, Cupgrass, Woolly” value ([8]; 500 g ai/ha) was 5 and the “Plant response rating (0 to 100), Bromegrass, Downy” value ([9]; 62 g ai/ha) was 0. The “Plant response rating (0 to 100), Bromegrass, Downy” value ([9]; 125 g ai/ha) was 0, the “Plant response rating, Bromegrass, Downy” value ([9]; 250 g ai/ha) was 0 and the “Plant response rating, Bromegrass, Downy” value ([9]; 500 g ai/ha) was 0. The “Plant response rating (0 to 100), Bermudagrass” value ([10]; 62 g ai/ha) was 0, the “Plant response rating (0 to 100), Bermudagrass” value ([10]; 125 g ai/ha) was 0 and the “Plant response rating, Bermudagrass” value ([10]; 250 g ai/ha) was 0. The “Plant response rating, Bermudagrass” value ([10]; 500 g ai/ha) was 0, the “Plant response rating (0 to 100), Foxtail, Green” value ([11]; 62 g ai/ha) was 0 and the “Plant response rating (0 to 100), Foxtail, Green” value ([11]; 125 g ai/ha) was 0. The “Plant response rating, Foxtail, Green” value ([11]; 250 g ai/ha) was 0 and the “Plant response rating, Foxtail, Green” value ([11]; 500 g ai/ha) was 20.

With `CCn1cc(C(=NN2CCCC2)c2ccccc2)c(-c2cc(Cl)cc(Cl)c2)n1` [Compound 37] the “Plant response rating (0 to 100), Goosegrass” value ([1]; 31 g ai/ha) was 0, the “Plant response rating (0 to 100), Goosegrass” value ([1]; 62 g ai/ha) was 0 and the “Plant response rating (0 to 100), Goosegrass” value ([1]; 125 g ai/ha) was 0. For the same compound, the “Plant response rating, Goosegrass” value ([1]; 250 g ai/ha) was 0, the “Plant response rating (0 to 100), Cocklebur” value ([2]; 31 g ai/ha) was 5 and the “Plant response rating (0 to 100), Cocklebur” value ([2]; 62 g ai/ha) was 10. For the same compound, the “Plant response rating (0 to 100), Cocklebur” value ([2]; 125 g ai/ha) was 15, the “Plant response rating, Cocklebur” value ([2]; 250 g ai/ha) was 20 and the “Plant response rating (0 to 100), Barley” value ([3]; 31 g ai/ha) was 0. For the same compound, the “Plant response rating (0 to 100), Barley” value ([3]; 62 g ai/ha) was 0, the “Plant response rating (0 to 100), Barley” value ([3]; 125 g ai/ha) was 0 and the “Plant response rating, Barley” value ([3]; 250 g ai/ha) was 0. For the same compound, the “Plant response rating (0 to 100), Windgrass” value ([4]; 62 g ai/ha) was 0, the “Plant response rating (0 to 100), Windgrass” value ([4]; 125 g ai/ha) was 0 and the “Plant response rating, Windgrass” value ([4]; 250 g ai/ha) was 0. The “Plant response rating (0 to 100), Deadnettle” value ([5]; 31 g ai/ha) was 0, the “Plant response rating (0 to 100), Deadnettle” value ([5]; 62 g ai/ha) was 0 and the “Plant response rating (0 to 100), Deadnettle” value ([5]; 125 g ai/ha) was 0. The “Plant response rating, Deadnettle” value ([5]; 250 g ai/ha) was 0, the “Plant response rating (0 to 100), Surinam Grass” value ([6]; 62 g ai/ha) was 0 and the “Plant response rating (0 to 100), Surinam Grass” value ([6]; 125 g ai/ha) was 0. For the same compound, the “Plant response rating, Surinam Grass” value ([6]; 250 g ai/ha) was 0, the “Plant response rating (0 to 100), Canarygrass” value ([7]; 31 g ai/ha) was 0 and the “Plant response rating (0 to 100), Canarygrass” value ([7]; 62 g ai/ha) was 0. For the same compound, the “Plant response rating (0 to 100), Canarygrass” value ([7]; 125 g ai/ha) was 0, the “Plant response rating, Canarygrass” value ([7]; 250 g ai/ha) was 0 and the “Plant response rating (0 to 100), Cupgrass, Woolly” value ([8]; 31 g ai/ha) was 5. The “Plant response rating (0 to 100), Cupgrass, Woolly” value ([8]; 62 g ai/ha) was 5, the “Plant response rating (0 to 100), Cupgrass, Woolly” value ([8]; 125 g ai/ha) was 5 and the “Plant response rating, Cupgrass, Woolly” value ([8]; 250 g ai/ha) was 5. The “Plant response rating (0 to 100), Bromegrass, Downy” value ([9]; 31 g ai/ha) was 0, the “Plant response rating (0 to 100), Bromegrass, Downy” value ([9]; 62 g ai/ha) was 0 and the “Plant response rating (0 to 100), Bromegrass, Downy” value ([9]; 125 g ai/ha) was 0. For the same compound, the “Plant response rating, Bromegrass, Downy” value ([9]; 250 g ai/ha) was 0, the “Plant response rating (0 to 100), Bermudagrass” value ([10]; 31 g ai/ha) was 0 and the “Plant response rating (0 to 100), Bermudagrass” value ([10]; 62 g ai/ha) was 0. The “Plant response rating (0 to 100), Bermudagrass” value ([10]; 125 g ai/ha) was 0, the “Plant response rating, Bermudagrass” value ([10]; 250 g ai/ha) was 0 and the “Plant response rating (0 to 100), Foxtail, Green” value ([11]; 31 g ai/ha) was 0. The “Plant response rating (0 to 100), Foxtail, Green” value ([11]; 62 g ai/ha) was 0, the “Plant response rating (0 to 100), Foxtail, Green” value ([11]; 125 g ai/ha) was 0 and the “Plant response rating, Foxtail, Green” value ([11]; 250 g ai/ha) was 0.
